The results in this text go back to the supplement of paper PMC11208160.
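Also: IS621 bridge recombinase in Escherichia coli cells against a fixed T5 target plasmid.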

The series can be described thus: recombinant UMI read abundance after kanamycin selection (control-corrected) (log10(CPM+1)); higher = more efficient recombination; extreme values may be limits of the assay; sequences stand for … in AGTGCAGAGAAAATCGGCCAGTTTTCTCTGCCTGCAGTCCGCATGCCGTGGGACCCCTTGGGTTCTAACCTGTTGCCTAGATTTATGCAGCGGACTGCCTTTCTCCCAAAGTGATAAACCGG…AGGTTGGTTTCACT; site = the 11-nt donor. The procedure, abridged:
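Pooled Escherichia coli screen of donor and donor-binding-loop pairs for the IS621 bridge recombinase. Each pair sits with a 12-nt UMI on a plasmid carrying a promoterless kanamycin gene. The library was co-electroporated with a target plasmid encoding a fixed target and T7-inducible recombinase, then plated with IPTG (0.07 mM) plus kanamycin, or unselected, each in two replicates. Recombinant UMIs were PCR-amplified across the donor–target junction and sequenced. Counts became CPM, averaged over replicates, scaled by control-derived factors and reported as log10(CPM+1).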
For “GTTCTAGCATGGACCGGTTTTCCCGGTAATCCGTATTTGCA (site GTTCAAGCTTG)”, the “recombinant UMI read abundance (log10)” value came out at 0.

On to “GTTCTAGCATGGACCGGTTTTCCCGGTAATCCGTATTTGCA (site GTTCCAGCTTG)”, for which the “recombinant UMI read abundance (log10)” value is 0.0113.

“GTTCTAGCATGGACCGGTTTTCCCGGTAATCCGTATTTGCA (site GTTCGAGCTTG)”: the “recombinant UMI read abundance (log10)” value turned out to be 0.

For “GTTCTAGCATGGACCGGTTTTCCCGGTAATCCGTATTTGCA (site GTTCTAGCTTG)”, the “recombinant UMI read abundance (log10)” value came to 0.902.

As to “GTTCTCTCATGGACCGGTTTTCCCGGTAATCCGTATTTGTA (site ATTCTCTCTTA)”, the “recombinant UMI read abundance (log10)” value is 0.848.

For “GTTCTCTCATGGACCGGTTTTCCCGGTAATCCGTATTTGTA (site CTTCTCTCTTA)”, the “recombinant UMI read abundance (log10)” value is 0.989.

On to “GTTCTCTCATGGACCGGTTTTCCCGGTAATCCGTATTTGTA (site GTTCTCTCTTA)”, for which the “recombinant UMI read abundance (log10)” value worked out at 1.83.

For “GTTCTCTCATGGACCGGTTTTCCCGGTAATCCGTATTTGTA (site TTTCTCTCTTA)”, the “recombinant UMI read abundance (log10)” value worked out at 0.822.

For the sequence “GTTGAAGCATGGACCGGTTTTCCCGGTAATCCGTATTTGAG (site GTTGAAGCTCT)”, the “recombinant UMI read abundance (log10)” value is 1.61.

“GTTGAGTCATGGACCGGTTTTCCCGGTAATCCGTATTTGAC (site GTTGAGTCTGT)”: the “recombinant UMI read abundance (log10)” value came out at 2.71.

As to “GTTGGCGCATGGACCGGTTTTCCCGGTAATCCGTATTTGTG (site GTTGGCGCTCA)”, the “recombinant UMI read abundance (log10)” value was found to be 0.74.

Take “GTTGGGCCATGGACCGGTTTTCCCGGTAATCCGTATTTGAT (site GTTGGGCCTAT)”: the “recombinant UMI read abundance (log10)” value stood at 0.00591.

With “GTTGTTCCATGGACCGGTTTTCCCGGTAATCCGTATTTGGT (site ATTGTTCCTAC)”, the “recombinant UMI read abundance (log10)” value was found to be 0.0121.

Turning to “GTTGTTCCATGGACCGGTTTTCCCGGTAATCCGTATTTGGT (site CTTGTTCCTAC)”, the “recombinant UMI read abundance (log10)” value is 0.00343.

Take “GTTGTTCCATGGACCGGTTTTCCCGGTAATCCGTATTTGGT (site GATGTTCCTAC)”: the “recombinant UMI read abundance (log10)” value was 0.0185.

Consider “GTTGTTCCATGGACCGGTTTTCCCGGTAATCCGTATTTGGT (site GCTGTTCCTAC)”, for which the “recombinant UMI read abundance (log10)” value turned out to be 0.00506.

Regarding “GTTGTTCCATGGACCGGTTTTCCCGGTAATCCGTATTTGGT (site GGTGTTCCTAC)”, the “recombinant UMI read abundance (log10)” value came to 0.0704.

For the sequence “GTTGTTCCATGGACCGGTTTTCCCGGTAATCCGTATTTGGT (site GTAGTTCCTAC)”, the “recombinant UMI read abundance (log10)” value was 0.00238.

Take “GTTGTTCCATGGACCGGTTTTCCCGGTAATCCGTATTTGGT (site GTCGTTCCTAC)”: the “recombinant UMI read abundance (log10)” value amounted to 0.005.

In the case of “GTTGTTCCATGGACCGGTTTTCCCGGTAATCCGTATTTGGT (site GTGGTTCCTAC)”, the “recombinant UMI read abundance (log10)” value was determined as 0.508.

As for “GTTGTTCCATGGACCGGTTTTCCCGGTAATCCGTATTTGGT (site GTTATTCCTAC)”, the “recombinant UMI read abundance (log10)” value was determined as 0.00427.

Consider “GTTGTTCCATGGACCGGTTTTCCCGGTAATCCGTATTTGGT (site GTTCTTCCTAC)”, for which the “recombinant UMI read abundance (log10)” value amounted to 0.0166.

For the sequence “GTTGTTCCATGGACCGGTTTTCCCGGTAATCCGTATTTGGT (site GTTGATCCTAC)”, the “recombinant UMI read abundance (log10)” value stood at 0.00419.

Turning to “GTTGTTCCATGGACCGGTTTTCCCGGTAATCCGTATTTGGT (site GTTGCTCCTAC)”, the “recombinant UMI read abundance (log10)” value worked out at 0.00968.

For “GTTGTTCCATGGACCGGTTTTCCCGGTAATCCGTATTTGGT (site GTTGGTCCTAC)”, the “recombinant UMI read abundance (log10)” value was 0.00325.

Consider “GTTGTTCCATGGACCGGTTTTCCCGGTAATCCGTATTTGGT (site GTTGTACCTAC)”, for which the “recombinant UMI read abundance (log10)” value worked out at 0.00624.

On to “GTTGTTCCATGGACCGGTTTTCCCGGTAATCCGTATTTGGT (site GTTGTCCCTAC)”, for which the “recombinant UMI read abundance (log10)” value stood at 0.00355.

Regarding “GTTGTTCCATGGACCGGTTTTCCCGGTAATCCGTATTTGGT (site GTTGTGCCTAC)”, the “recombinant UMI read abundance (log10)” value was found to be 0.03.

As to “GTTGTTCCATGGACCGGTTTTCCCGGTAATCCGTATTTGGT (site GTTGTTACTAC)”, the “recombinant UMI read abundance (log10)” value was found to be 0.00857.

As to “GTTGTTCCATGGACCGGTTTTCCCGGTAATCCGTATTTGGT (site GTTGTTCCTAA)”, the “recombinant UMI read abundance (log10)” value was found to be 0.00913.

Consider “GTTGTTCCATGGACCGGTTTTCCCGGTAATCCGTATTTGGT (site GTTGTTCCTAC)”, for which the “recombinant UMI read abundance (log10)” value was 0.00461.

“GTTGTTCCATGGACCGGTTTTCCCGGTAATCCGTATTTGGT (site GTTGTTCCTAG)”: the “recombinant UMI read abundance (log10)” value came out at 0.

With “GTTGTTCCATGGACCGGTTTTCCCGGTAATCCGTATTTGGT (site GTTGTTCCTAT)”, the “recombinant UMI read abundance (log10)” value is 0.00563.

For the sequence “GTTGTTCCATGGACCGGTTTTCCCGGTAATCCGTATTTGGT (site GTTGTTCCTCC)”, the “recombinant UMI read abundance (log10)” value is 0.0221.

“GTTGTTCCATGGACCGGTTTTCCCGGTAATCCGTATTTGGT (site GTTGTTCCTGC)”: the “recombinant UMI read abundance (log10)” value worked out at 0.388.

Consider “GTTGTTCCATGGACCGGTTTTCCCGGTAATCCGTATTTGGT (site GTTGTTCCTTC)”, for which the “recombinant UMI read abundance (log10)” value stood at 0.00361.

For the sequence “GTTGTTCCATGGACCGGTTTTCCCGGTAATCCGTATTTGGT (site GTTGTTGCTAC)”, the “recombinant UMI read abundance (log10)” value came out at 0.0845.

On to “GTTGTTCCATGGACCGGTTTTCCCGGTAATCCGTATTTGGT (site GTTGTTTCTAC)”, for which the “recombinant UMI read abundance (log10)” value turned out to be 0.

Turning to “GTTGTTCCATGGACCGGTTTTCCCGGTAATCCGTATTTGGT (site GTTTTTCCTAC)”, the “recombinant UMI read abundance (log10)” value amounted to 0.

Consider “GTTGTTCCATGGACCGGTTTTCCCGGTAATCCGTATTTGGT (site TTTGTTCCTAC)”, for which the “recombinant UMI read abundance (log10)” value is 0.0162.

Take “GTTGTTCCATGGACCGGTTTTCCCGGTAATCCGTATTTGTT (site GTTGTTCCTAA)”: the “recombinant UMI read abundance (log10)” value was 0.42.

With “GTTGTTCCATGGACCGGTTTTCCCGGTAATCCGTATTTGTT (site GTTGTTCCTAC)”, the “recombinant UMI read abundance (log10)” value amounted to 0.

In the case of “GTTGTTCCATGGACCGGTTTTCCCGGTAATCCGTATTTGTT (site GTTGTTCCTAG)”, the “recombinant UMI read abundance (log10)” value came to 0.

On to “GTTGTTCCATGGACCGGTTTTCCCGGTAATCCGTATTTGTT (site GTTGTTCCTAT)”, for which the “recombinant UMI read abundance (log10)” value was 0.

Regarding “GTTTCAACATGGACCGGTTTTCCCGGTAATCCGTATTTGAC (site GTTTCAACTGT)”, the “recombinant UMI read abundance (log10)” value was 0.631.

Take “GTTTCAGCATGGACCGGTTTTCCCGGTAATCCGTATTTGTG (site GTTTCAGCTCA)”: the “recombinant UMI read abundance (log10)” value was 0.537.

For “GTTTCTGCATGGACCGGTTTTCCCGGTAATCCGTATTTGAG (site GTTTCTGCTCT)”, the “recombinant UMI read abundance (log10)” value amounted to 0.45.

Consider “TAAAGGCCATGGACCGGTTTTCCCGGTAATCCGTATTTGTA (site TAAAGACCTTA)”, for which the “recombinant UMI read abundance (log10)” value turned out to be 0.00739.

In the case of “TAAAGGCCATGGACCGGTTTTCCCGGTAATCCGTATTTGTA (site TAAAGCCCTTA)”, the “recombinant UMI read abundance (log10)” value was 0.00872.

On to “TAAAGGCCATGGACCGGTTTTCCCGGTAATCCGTATTTGTA (site TAAAGGCCTTA)”, for which the “recombinant UMI read abundance (log10)” value worked out at 0.544.

Turning to “TAAAGGCCATGGACCGGTTTTCCCGGTAATCCGTATTTGTA (site TAAAGTCCTTA)”, the “recombinant UMI read abundance (log10)” value is 0.12.

In the case of “TAACAACCATGGACCGGTTTTCCCGGTAATCCGTATTTGTT (site TAACAACCTAA)”, the “recombinant UMI read abundance (log10)” value stood at 0.06.

As for “TAACGAACATGGACCGGTTTTCCCGGTAATCCGTATTTGCG (site TAACGAACTCG)”, the “recombinant UMI read abundance (log10)” value amounted to 1.63.

For “TAACGAGCATGGACCGGTTTTCCCGGTAATCCGTATTTGGG (site TAAAGAGCTCC)”, the “recombinant UMI read abundance (log10)” value came out at 0.00891.

With “TAACGAGCATGGACCGGTTTTCCCGGTAATCCGTATTTGGG (site TAACGAGCTCC)”, the “recombinant UMI read abundance (log10)” value was 0.146.

For the sequence “TAACGAGCATGGACCGGTTTTCCCGGTAATCCGTATTTGGG (site TAAGGAGCTCC)”, the “recombinant UMI read abundance (log10)” value worked out at 0.143.

“TAACGAGCATGGACCGGTTTTCCCGGTAATCCGTATTTGGG (site TAATGAGCTCC)”: the “recombinant UMI read abundance (log10)” value was determined as 0.0081.

For “TAACGCACATGGACCGGTTTTCCCGGTAATCCGTATTTGGT (site TAACGCACTAC)”, the “recombinant UMI read abundance (log10)” value is 0.736.

Turning to “TAACGGTCATGGACCGGTTTTCCCGGTAATCCGTATTTGGC (site TAACGGTCTGC)”, the “recombinant UMI read abundance (log10)” value was 2.67.

Turning to “TAACGTTCATGGACCGGTTTTCCCGGTAATCCGTATTTGTA (site TAACGTTCTTA)”, the “recombinant UMI read abundance (log10)” value was 1.16.

For the sequence “TAAGCACCATGGACCGGTTTTCCCGGTAATCCGTATTTGAA (site TAAGCACCTTT)”, the “recombinant UMI read abundance (log10)” value was found to be 0.0176.

For the sequence “TAAGCCACATGGACCGGTTTTCCCGGTAATCCGTATTTGAC (site TAAGCCACTGT)”, the “recombinant UMI read abundance (log10)” value is 2.78.

In the case of “TAAGCCGCATGGACCGGTTTTCCCGGTAATCCGTATTTGGG (site TAAGCCGCTCC)”, the “recombinant UMI read abundance (log10)” value was found to be 0.0145.

Consider “TAAGCGCCATGGACCGGTTTTCCCGGTAATCCGTATTTGTG (site AAAGCGCCTCA)”, for which the “recombinant UMI read abundance (log10)” value stood at 0.0246.

For “TAAGCGCCATGGACCGGTTTTCCCGGTAATCCGTATTTGTG (site CAAGCGCCTCA)”, the “recombinant UMI read abundance (log10)” value amounted to 0.0975.

Consider “TAAGCGCCATGGACCGGTTTTCCCGGTAATCCGTATTTGTG (site GAAGCGCCTCA)”, for which the “recombinant UMI read abundance (log10)” value was 0.032.

For “TAAGCGCCATGGACCGGTTTTCCCGGTAATCCGTATTTGTG (site TAAGCGCCTCA)”, the “recombinant UMI read abundance (log10)” value came to 0.248.

For the sequence “TAAGCTCCATGGACCGGTTTTCCCGGTAATCCGTATTTGCG (site TAAGCTCCTCG)”, the “recombinant UMI read abundance (log10)” value turned out to be 0.303.
